pIC50, pKi: −log10 of the molar value.

Assay [1] relates to Acetylcholinesterase. The assay is described as follows: Inhibition of AChE (unknown origin) at 100 ug/ml using acetylthiocholine iodide as substrate incubated for 30 mins by Ellman's microplate assay. The following applies: Homo sapiens.
Assay [2] addresses T1, Acetylcholinesterase (Homo sapiens, UniProt P22303). As to the kind of experiment: Inhibition of AChE (unknown origin) using acetylthiocholine iodide as substrate incubated for 30 mins by Ellman's microplate assay.
Assay [3] in a line: Selectivity index, ratio of IC50 for equine serum BChE to IC50 for AChE (unknown origin).
Assay [4] concerns the target Cholinesterase (Equus caballus) (UniProt P81908). The assay is described as follows: Inhibition of equine serum BChE at 100 ug/ml using S-butyrylthiocholine chloride as substrate incubated for 30 mins by Ellman's microplate assay. A general note: In Ellman's method for cholinesterases, released thiocholine reacts with DTNB.
The nature of assay [5]: Selectivity index, ratio of IC50 for AChE (unknown origin) to IC50 for equine serum BChE.
Assay [6] has as its target T2, Cholinesterase (Equus caballus, UniProt P81908). The assay is described as follows: Inhibition of equine serum BChE using S-butyrylthiocholine chloride as substrate incubated for 30 mins by Ellman's microplate assay.
A short description of assay [7]: Inhibition of Saccharomyces cerevisiae alpha-glucosidase using p-nitrophenyl-alpha-D-glucopyranoside as substrate preincubated for 10 mins followed by substrate addition measured after 10 mins.
Assay [8] concerns the target T1, Acetylcholinesterase. The assay is described as follows: Mixed inhibition of AChE (unknown origin) using acetylthiocholine iodide as substrate incubated for 30 mins by Lineweaver-Burk plot analysis.
The target of assay [9] is T2, Cholinesterase. As to the kind of experiment: Mixed inhibition of equine serum BChE using S-butyrylthiocholine chloride as substrate incubated for 30 mins by Lineweaver-Burk plot analysis.

T1 sequence (P22303 whole entry): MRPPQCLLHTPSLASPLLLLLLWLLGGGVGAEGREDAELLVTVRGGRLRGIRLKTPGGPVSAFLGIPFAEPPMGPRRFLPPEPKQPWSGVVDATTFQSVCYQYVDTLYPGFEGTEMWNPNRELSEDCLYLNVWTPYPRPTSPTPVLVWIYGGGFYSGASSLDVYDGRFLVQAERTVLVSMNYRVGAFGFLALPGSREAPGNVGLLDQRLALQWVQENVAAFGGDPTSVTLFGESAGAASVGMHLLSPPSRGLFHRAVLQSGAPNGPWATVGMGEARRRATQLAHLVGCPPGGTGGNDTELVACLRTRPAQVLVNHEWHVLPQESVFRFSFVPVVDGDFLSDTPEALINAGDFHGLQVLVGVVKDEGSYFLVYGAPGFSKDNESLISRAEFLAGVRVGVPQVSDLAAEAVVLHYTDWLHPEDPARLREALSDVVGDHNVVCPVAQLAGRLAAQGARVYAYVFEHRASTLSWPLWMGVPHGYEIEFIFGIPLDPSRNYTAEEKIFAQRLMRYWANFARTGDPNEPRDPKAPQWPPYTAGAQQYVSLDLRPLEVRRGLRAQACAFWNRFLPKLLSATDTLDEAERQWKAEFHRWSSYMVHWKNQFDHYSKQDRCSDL
Sequence of Cholinesterase (Equus caballus) (P81908 whole entry): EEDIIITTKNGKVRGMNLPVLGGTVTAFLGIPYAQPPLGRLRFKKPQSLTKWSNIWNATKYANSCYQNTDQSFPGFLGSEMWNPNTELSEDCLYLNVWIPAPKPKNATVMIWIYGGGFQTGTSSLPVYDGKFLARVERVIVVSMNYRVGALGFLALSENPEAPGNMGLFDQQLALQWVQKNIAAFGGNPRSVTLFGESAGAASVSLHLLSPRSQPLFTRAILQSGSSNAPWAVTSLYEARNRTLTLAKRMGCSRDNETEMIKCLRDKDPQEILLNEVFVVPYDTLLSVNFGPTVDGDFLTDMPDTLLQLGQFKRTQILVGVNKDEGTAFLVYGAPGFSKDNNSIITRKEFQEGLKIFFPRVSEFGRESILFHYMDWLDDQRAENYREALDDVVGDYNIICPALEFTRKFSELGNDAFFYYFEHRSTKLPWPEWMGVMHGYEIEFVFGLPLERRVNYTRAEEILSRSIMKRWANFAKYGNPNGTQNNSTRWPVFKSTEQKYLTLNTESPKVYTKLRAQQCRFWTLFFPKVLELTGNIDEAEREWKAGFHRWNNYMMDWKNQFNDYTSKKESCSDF
T2 sequence (P81908 whole entry): as above

The inhibition is the percentage by which the read-out fell short of the control. Lower therefore signals little suppression. As a reminder, the pIC50 is −log10 of the IC50, conventionally taken in molar units. A higher pIC50 goes with a small IC50. Consider `O=C(CCCCCCCCc1ccccc1)c1c(O)cccc1O` [MALABARICONE A], for which the values for the inhibition in assay [1] and in assay [4] were 97.4% and 69.5%, respectively. Moreover, the results for the pIC50 in assay [2] and in assay [6] were 5.88 and 4.41, respectively. In addition, the Ratio IC50 in assay [3] turned out to be 33; in assay [5], 0.04.

Take `O=C(CCCCCCCCc1cc(O)c(O)cc1-c1ccc(O)c(C(=O)CCCCCCCCc2ccccc2)c1O)c1c(O)cccc1O`: the negative logarithm of the IC50 (pIC50) in assay [7] was 5.30.

For `O=C(CCCCCCCCc1ccc(O)c(O)c1)c1c(O)ccc(C(CCCCCCCCc2ccc(O)c(O)c2)c2c(O)cccc2O)c1O` (centres undefined), the inhibition worked out at 75.4% in assay [1] and 81.1% in [4]. Also, the pIC50 was 4.90 in assay [2] and 4.98 in assay [6]. Further, the Ratio IC50 was determined as 0.83 in assay [3] and 1.2 in [5].

`O=C(CCCCCCCCc1ccc(O)c(O)c1)c1c(O)ccc(C(CCCCCCCCc2ccc(O)cc2)c2c(O)cccc2O)c1O` (centres undefined): the inhibition came out at 91.5% in assay [1] and 86.7% in [4]. Also, the pIC50 in [2] is 4.51; in assay [6], 4.90. In addition, the Ratio IC50 in [3] stood at 0.41; in assay [5], 2.45.

Broadly, the pKi is the Ki on a negative log10 scale, so that one unit is a factor of ten. A low value points to a high Ki. Turning to `O=C(CCCCCCCCc1ccc(O)c(O)c1)c1c(O)cccc1O` [MALABARICONE C], the inhibition in [1] turned out to be 97.1%; in [4], 94.1%. Moreover, the pIC50 in [2] is 5.71; in assay [6], 5.55. The Ratio IC50 in [3] was determined as 1.44; in assay [5], 0.69. The pKi in assay [8] was 5.23; in [9], 4.94.

With `O=C(CCCCCCCCc1ccc(O)cc1)c1c(O)cccc1O` [MALABARICONE B], the inhibition in assay [1] was 95.9%; in assay [4] it was 87.3%. Moreover, the pIC50 in assay [2] is 5.74; in assay [6] it was 5.75. Besides, the Ratio IC50 in assay [3] is 0.96; in assay [5], 1.05. Further, the negative-log Ki (pKi) is 5.36 in assay [8] and 6.25 in assay [9].

Consider `O=C(CCCCCCCCc1ccc(O)cc1)c1c(O)cc(O)cc1O`, for which the inhibition in assay [1] stood at 99.4%; in assay [4], 86.8%. Also, the pIC50 was 5.19 in assay [2] and 5.18 in assay [6]. For the same compound, the Ratio IC50 worked out at 1.03 in assay [3] and 0.97 in [5].

In [7], `O=C1CC(CCCCCCc2ccc(O)cc2)Oc2cccc(O)c21` (centres undefined) had a negative logarithm of the IC50 (pIC50) of 3.45.

On to `O=C(O)CCCCCCCCc1ccc(O)cc1`, for which the figures for the inhibition in [1] and in assay [4] were 45.1% and 49%, respectively.

For the origin of these results see ChEMBL document CHEMBL3817788, “Natural cholinesterase inhibitors from Myristica cinnamomea King” (Bioorg Med Chem Lett, 2016).
